For experiment [1], the system named is Pseudocercosporella herpotrichoides. The experiment can be described thus: Pseudocercosporella herpotrichoides test (wheat)/protective. It is filed as in vivo. As to conditions: protective, application rate 250 g/ha, evaluated 21 days after inoculation. How it is done: The test is evaluated 21 days after inoculation.
The subject of experiment [2] is Fusarium nivale var. majus. The experiment can be described thus: Fusarium nivale (var. majus) test (wheat)/protective. As to conditions: protective, application rate 250 g/ha, evaluated 4 days after inoculation.
Procedure: Fusarium nivale (var. Majus) Test (Wheat)/protective
(§1) Solvent: 10 parts by weight of N-methylpyrrolidone
(§2) Emulsifier: 0.6 part by weight of alkylaryl polyglycol ether
After the spray coating has dried on, the plants are sprayed with a conidia suspension of Fusarium nivale var. majus.
(§3) The plants are placed in a greenhouse at a temperature of about 15° C. and a relative atmospheric humidity of about 100% under translucent incubation hoods.
(§4) The test is evaluated 4 days after inoculation.
Experiment [3] has as its system Fusarium nivale var. nivale. The experiment can be described thus: Fusarium nivale (var. nivale) test (wheat)/curative. The following applies: curative (sprayed 24 hours after inoculation), application rate 250 g/ha, evaluated 4 days after inoculation.
Procedure: Fusarium nivale (var. nivale) Test (Wheat)/curative
Solvent: 100 parts by weight of dimethylformamide
Emulsifier: 0.25 part by weight of alkylaryl polyglycol ether
To test for curative activity, young plants are sprayed with a conidia suspension of Fusarium nivale var. nivale.
The plants remain in an incubation cabin at 15° C. and a relative atmospheric humidity of 100% for 24 hours.
After the spray coating has dried on, the plants remain in a greenhouse under translucent incubation hoods at a temperature of about 15° C. and a relative atmospheric humidity of about 100%.
as §4
Experiment [4] deals with Fusarium nivale var. nivale. The experiment can be described thus: Fusarium nivale (var. nivale) test (wheat)/protective. As to conditions: protective, application rate 250 g/ha, evaluated 4 days after inoculation.
Procedure: Fusarium nivale (var. nivale) Test (Wheat)/protective
as §1, §2
After the spray coating has dried on, the plants are sprayed with a conidia suspension of Fusarium nivale var. nivale.
as §3, §4
In experiment [5] the test system is Erysiphe graminis f.sp. hordei. The experiment can be described thus: Erysiphe test (barley)/curative. It is filed as in vivo. As to conditions: curative (sprayed 48 hours after inoculation), application rate 250 g/ha, evaluated 7 days after inoculation.
In experiment [6] the test system is Erysiphe graminis f.sp. hordei. The experiment can be described thus: Erysiphe test (barley)/protective. The experiment is classed as in vivo. The following applies: protective, application rate 250 g/ha, evaluated 7 days after inoculation. How it is done: The test is evaluated 7 days after the inoculation.

As for `CON=C(C1=NOCCO1)c1ccccc1Oc1ncnc(Oc2ccccc2C(=O)NCc2ccccc2)c1F` [Example 69], in experiment [1], the “efficacy in comparison with the untreated control” value (“efficacy in comparison” for short) worked out at 100%.

With `CON=C(C1=NOCCO1)c1ccccc1Oc1ncnc(Oc2cccc3c2CC(C)(C)O3)c1F` [Example 42], the “efficacy in comparison” value in experiment [2] is on record as 100%.

For the molecule `CON=C(C1=NOCCO1)c1ccccc1Oc1ncnc(Oc2ccccc2Cn2cncn2)c1F` [Example 71], the “efficacy in comparison” value in experiment [1] is 100%.

For `CCCc1ccccc1Oc1ncnc(Oc2ccccc2C(=NOC)C2=NOCCO2)c1F` [Example 34], the “efficacy in comparison” value in experiment [3] and in experiment [4] was 100% in each case.

`CO/N=C(/C1=NOCCO1)c1ccccc1Oc1ncnc(Oc2ccccc2Cl)c1F` [Example 1, 3-{1-[2-(4-<2-chlorophenoxy>-5-fluoropyrimid-6-yloxy)-phenyl]-1-(methoximino)-methyl}-5,6-dihydro-1,4,2-dioxazine]: the “efficacy in comparison” value in experiment [5] came out at 100%.

For `C=C(C)Cc1ccccc1Oc1ncnc(Oc2ccccc2C(=NOC)C2=NOCCO2)c1F` [Example 31], the “efficacy in comparison” value in experiment [3] was determined as 100%.

Regarding `CON=C(C1=NOCCO1)c1ccccc1Oc1ncnc(Oc2cc(C)cc(C)c2C)c1F` [Example 14], in experiment [2], the “efficacy in comparison” value was 100%.

In the case of `CON=C(C1=NOCCO1)c1ccccc1Oc1ncnc(Oc2ccccc2C2OCC(C)(C)CO2)c1F` [Example 59], the “efficacy in comparison” value in experiment [6] was determined as 100%.

Turning to `CON=C(C1=NOCCO1)c1ccccc1Oc1ncnc(Oc2ccccc2OCc2ccccc2)c1F` [Example 33], the “efficacy in comparison” value in experiment [2] is 100%.
